Laboratory results as given in PMC7767178 (International Journal of Molecular Sciences, 2020).
Converted amounts (≈) assume the structure as drawn. Where two headings read alike, the source gives them in different places.

Columns and labels:
E. coli CVCCO157 = assay: MIC, microtiter broth dilution; assay type: cell-based; conditions: 37 °C, 16–18 h, three experiments
Text: (§1) All experiments were repeated three times.

A. veronii ACCC61732 [1] = assay: Resistance development, 30 serial passages; assay type: cell-based; conditions: A. veronii ACCC61732, 30 passages (30 days)
Method: The development of bacterial resistance of peptides was performed by the MIC assays. […] GEN, CIP, and PMB were used as controls. […] The MIC values were measured as described above. The serial passaging was repeated for 30 days.

A. veronii ACCC61732 [2] = assay: Time-killing curves; assay type: cell-based; conditions: 2× MIC; 1 × 10^5 CFU/mL, colony counting, 0–24 h
Method: Time-killing curves were performed as previously described. […] The sample of 100 μL was taken from each flask at 0, 0.5, 1, 2, 4, 6, 8, 10, 20, and 24 h, respectively, and serially diluted for colony counting. PBS and CIP were used as the negative and positive control, respectively.

[3] = tested on: A. veronii ACCC61732 in biofilm; assay type: cell-based; conditions: 2 h
Method: The mid-log phase A. veronii ACCC61732 cells (1 × 10^8 CFU/mL) were inoculated into in the 96-well plates and cultured for 24 h at 37 °C. The plates were washed twice with PBS. […] PBS was used as the negative control. The plates were treated with ultrasound for 5 min and the viable bacteria were counted on the TSA plates.

A. veronii ACCC61732 [4] = assay: Organ injury in peritonitis model, histology; assay type: in vivo, mice; conditions: peptides 5 μmol/kg, CIP 1 μmol/kg
Method: Livers, kidneys, spleens, and lungs were removed from mice at 24 h and five days post treatment to evaluate the organ injury. After washing with PBS, the organs were fixed in 4% paraform-aldehyde for 24 h at 4 °C, dehydrated by a graded series of ethanol (75‒95%), and infiltrated with xylene. The organs were then embedded in paraffin wax, sectioned, and stained with hematoxylin and eosin. Finally, the tissue samples were fixed and observed by the light microscope. The CIP-treated mice served as the positive control and the PBS group served as the negative control.

[5] = tested on: Salmonella typhimurium ATCC14028; assay type: cell-based
A. veronii ACCC61732 [6] = assay: Mouse peritonitis model, bacterial translocation to organs; assay type: in vivo, ICR mice; conditions: 5 μmol/kg, 24 h post-treatment, colony counting
Method: (§2) Sera and organs (livers, kidneys, spleens, and lungs) were collected from the mice at 24 h post-treatment. The organs were homogenized in sterile PBS to evaluate bacterial translocation by colony counting. The levels of cytokines (TNF-α, IL-1β, IL-6, and IL-10) in sera were detected using the ELISA kits.

TNF-α = assay: Serum cytokine, ELISA, peritonitis model; assay type: in vivo; conditions: 5 μmol/kg, 24 h after treatment, range over mice
Method: as §2

Escherichia coli CVCC195 = assay: microbe, parasite or virus in culture; assay type: cell-based
Text: as §1

S. pullorum CVCC1789 = assay: microbe, parasite or virus in culture; assay type: cell-based
Text: as §1

S. enteritidis CVCC3377 = assay: microbe, parasite or virus in culture; assay type: cell-based
Text: as §1

E. coli CVCC25922 = assay: microbe, parasite or virus in culture; assay type: cell-based
Text: as §1

E. coli CVCC1515 = assay: microbe, parasite or virus in culture; assay type: cell-based; conditions: E. coli CVCC1515, broth dilution, 37 °C, 16–18 h, three experiments
Text: as §1

[7] = tested on: Staphylococcus aureus ATCC43300; assay: microbe, parasite or virus in culture; assay type: cell-based; conditions: Staphylococcus aureus ATCC43300, broth dilution, 37 °C, 16–18 h, three experiments
Text: as §1

S. pullorum CVCC533 = assay: microbe, parasite or virus in culture; assay type: cell-based
Text: as §1

S. pullorum CVCC1809 = assay: microbe, parasite or virus in culture; assay type: cell-based
Text: as §1

A. veronii X-1-06909 = assay: microbe, parasite or virus in culture; assay type: cell-based
Text: as §1

[8] = tested on: Candida albicans CMCC98001; assay: microbe, parasite or virus in culture; assay type: cell-based; conditions: CMCC98001
Text: as §1

A. veronii ACCC61732 [9] = assay: Outer membrane permeabilization, NPN assay; assay type: cell-based; conditions: NPN fluorescence, 1×–4× MIC
Method: The outer membrane permeabilization abilities of peptides were determined using the fluorescent NPN assay. Mid-log phase A. veronii ACCC61732 was collected by centrifugation, washed twice, and then suspended in N-2-hydroxyethylpiperazine-n-2-ethane sulfonic acid (HEPES) buffer (pH 7.4) to an OD600nm = 0.4. […] Fluorescence intensity was recorded until no further increase with a microplate reader (excitation/emission, 328/438 nm).

A. veronii ATCC35624 = assay type: cell-based
A. veronii ACCC61732 [10] = assay: Post-antibiotic effect (PAE); assay type: cell-based; conditions: 2 h exposure, 1000-fold dilution, 37 °C, triplicate
Method: The samples were taken from flasks for counting each hour until bacterial cultures became turbid. The untreated bacteria severed as controls. The PAE was calculated using the following equation: PAE = T − C, where T is the time (h) required for the CFU in the test culture to increase by 10-fold from the count immediately after the drug removal and C is the corresponding time (h) for the control. The experiment was performed in triplicate.

Salmonella = conditions: range over the strains of Table 2

CC(C)[C@H]1NC(=O)CNC(=O)[C@@H](CC(N)=O)NC(=O)[C@@H](CCCNC(=N)N)NC(=O)[C@@H](Cc2ccc(O)cc2)NC(=O)[C@@H](C(C)C)NC(=O)[C@H](NC(=O)[C@H](NC(=O)[C@@H](CC(N)=O)NC(=O)[C@@H](Cc2c[nH]c3ccccc23)NC(=O)[C@@H](C)NC(=O)[C@@H](Cc2ccccc2)NC(=O)CN)C(C)C)CSSC[C@H](C(=O)N[C@H](Cc2c[nH]cn2)C(=O)N[C@H](CCCNC(=N)N)C(=O)N[C@H](CCCNC(=N)N)C(=O)N[C@H](C)C(=O)N[C@H](CC(N)=O)C(N)=O)NC(=O)[C@@H](C(C)C)NC(=O)[C@@H](CCCNC(=N)N)NC1=O [DN6NH2]
MIC (E. coli CVCCO157): 4 mg/L
MIC (E. coli CVCCO157; read-out: MIC): 1.62 µM
increase of MIC after 30 serial passages (A. veronii ACCC61732 [1]): seven-fold
time to completely kill A. veronii ACCC61732 (A. veronii ACCC61732 [2]): ≤ 1 h
bacteria in biofilm killed [3]; 8: 64.22%
bacteria in biofilm killed [3]; 16: 66.79%
effect on injury of liver, spleen, kidney and lung (A. veronii ACCC61732 [4]): remarkably alleviated the injury of the liver and spleen
MIC ([5]; ATCC14028): 3.23 µM
MIC ([5]; Salmonella typhimurium ATCC14028, broth dilution, 37 °C, 16–18 h, three experiments): 8 mg/L
reduction of bacteria in kidneys (A. veronii ACCC61732 [6]): 80.10%
reduction of bacteria in livers (A. veronii ACCC61732 [6]): 89.65%
reduction of bacteria in lungs (A. veronii ACCC61732 [6]): 81.61%
reduction of bacteria in spleens (A. veronii ACCC61732 [6]): 70.38%
serum level of TNF-α (TNF-α): 40.02 to 66.20 pg/mL
MIC (Escherichia coli CVCC195; CVCC195, read-out: MIC): 3.23 µM
MIC (Escherichia coli CVCC195; Escherichia coli CVCC195, broth dilution, 37 °C, 16–18 h, three experiments): 8 mg/L
MIC (S. pullorum CVCC1789; CVCC1789, read-out: MIC): 6.46 µM
MIC (S. pullorum CVCC1789; S. pullorum CVCC1789, broth dilution, 37 °C, 16–18 h, three experiments): 16 mg/L
MIC (S. enteritidis CVCC3377; CVCC3377, read-out: MIC): 0.81 µM
MIC (S. enteritidis CVCC3377; S. enteritidis CVCC3377, broth dilution, 37 °C, 16–18 h, three experiments): 2 mg/L
MIC (E. coli CVCC25922; CVCC25922, read-out: MIC): 3.23 µM
MIC (E. coli CVCC25922; E. coli CVCC25922, broth dilution, 37 °C, 16–18 h, three experiments): 8 mg/L
MIC (E. coli CVCC1515): 4 mg/L
MIC (E. coli CVCC1515; read-out: MIC): 1.62 µM
MIC [7]: 4 mg/L
MIC ([7]; read-out: MIC): 1.62 µM
MIC (S. pullorum CVCC533; CVCC533, read-out: MIC): 6.46 µM
MIC (S. pullorum CVCC533; S. pullorum CVCC533, broth dilution, 37 °C, 16–18 h, three experiments): 16 mg/L
MIC (S. pullorum CVCC1809; CVCC1809, read-out: MIC): 3.23 µM
MIC (S. pullorum CVCC1809; S. pullorum CVCC1809, broth dilution, 37 °C, 16–18 h, three experiments): 8 mg/L
MIC (A. veronii X-1-06909; A. veronii X-1-06909, broth dilution, 37 °C, 16–18 h, three experiments): 32 mg/L
MIC (A. veronii X-1-06909; read-out: MIC): 12.93 µM
MIC [8]: 128 mg/L (≈ 51.7 µM)
ability to penetrate the outer membrane (A. veronii ACCC61732 [9]): higher ability to penetrate the outer membrane than N6NH2
MIC (A. veronii ATCC35624; A. veronii ATCC35624, broth dilution, 37 °C, 16–18 h, three experiments): 64 mg/L
MIC (A. veronii ATCC35624; ATCC35624): 25.86 µM
PAE (A. veronii ACCC61732 [10]; 1× MIC): 0.68 ± 0.01 h
PAE (A. veronii ACCC61732 [10]; 2× MIC): 1.13 ± 0.11 h
PAE (A. veronii ACCC61732 [10]; 4× MIC): 3.36 ± 0.19 h
MIC values against Salmonella (Salmonella): 0.81 to 6.46 µM
